Measured values from ChEMBL document CHEMBL3507680, “University of Dundee, Gates Library screen for HepG2 cell viability”.

Assay: Human HepG2 cell viability assay in 384 well format
Assay type: toxicity, cell-based
Design: dose 125 nL, time 70.5 hour; concentration not given beside the values
Details: HepG2 cells, read-out: Inhibition

Compound	cytotoxicity at 70.5 h
CC(NC(=O)Cc1cc2c(cc1Cl)OCCO2)c1ccncn1 (configuration not stated)	-2.12%
Cc1cc(C)c2cc(CNCc3ccccc3)c3nn(C)c(=O)n3c2c1	3.71%
COc1ccc2[nH]nc(CN3CCC(C(C)N(C)C)CC3)c2c1 (configuration not stated)	1.23%
CCc1nc(C2CCCN(C(=O)c3ccc(Cl)cc3)C2)no1 (configuration not stated)	5.79%
CN1CCC2(CC1)CN(C(=O)c1ccncc1)Cc1ccccc12	-2.21%
CC(C)c1cc(CN(C)C(=O)C(C)N2CCc3ccccc3C2)no1 (configuration not stated)	34.4%
CCC(=O)NC(Cc1cc(N(C)C)nc(C2CC2)n1)c1ccccc1 (configuration not stated)	-2.39%
COc1ccc(-c2cc3nc([C@H](C)NC(=O)C4CC4)nn3cn2)cc1	-0.493%
CSCC(C)C(=O)NCc1c(C)nc2cc(=O)[nH]n2c1C (configuration not stated)	7.35%
COCC(=O)N1Cc2c(-c3cccc(C)c3)nc(N)nc2C1C (configuration not stated)	-9.82%
CSc1cccc(CN2CCC(CCC(=O)Nc3ccccc3)CC2)c1	-8.78%
O=C(CCc1ccc2c(c1)OCO2)N1CCCC(n2cccn2)C1 (configuration not stated)	13.3%
CCc1nccn1CCCNC(=O)c1cnn(-c2ccccc2OC)c1	-5.05%
Nc1nccnc1C1CN(C(=O)c2cnc(C3CC3)nc2)CCO1 (configuration not stated)	-4.03%
O=C1NCc2ccc(NC(=O)C3CCCN3c3nccs3)cc21 (configuration not stated)	-9.24%
C=C(Cl)CN1CCC(C(=O)c2cc(F)ccc2F)CC1	-10.5%
CCCNC(=O)c1cc(Br)cc(S(=O)(=O)N2CCOCC2)c1F	-0.419%
CN1CCN(c2ncnc3c2c(C(=O)NC2CC2)c2ccccn23)CC1	5.64%
COc1ccccc1CNC(=O)C(C)n1cc2c(n1)c(C)nn2C (configuration not stated)	-6.09%
CC(=O)NCC(=O)Nc1cc(C)n(-c2ccc(Cl)cc2Cl)n1	-0.82%
COc1ccc(CNCC2CCN(CC(C)O)CC2)c2ccccc12 (configuration not stated)	29.8%
O=c1[nH]c2nc(N3CCCC3)ncc2c(=O)n1-c1cccc(F)c1	-16.9%
COCCNC(=O)C1CN(Cc2ccncc2)Cc2ccnn2C1 (configuration not stated)	-14.1%

Compound	cytotoxicity at 70.5 h
CC(Oc1ccccc1C(F)(F)F)C(=O)NCCNC(=O)C1CC1 (configuration not stated)	-6.09%
CCc1nc(N)nc(N2CCCC3(CCN(C)CC3)CC2)c1C	0.239%
CC(O)(CNC(=O)NCc1cccc(-n2cncn2)c1)c1ccco1 (configuration not stated)	7.59%
CC(C)c1ccc(OCC(=O)N2CCOCC2c2ncon2)cc1 (configuration not stated)	-8.54%
Cn1ccnc1CN1CCOC[C@H]1c1nc(C(C)(C)C)co1	-1.75%
Cc1cc2n(n1)[C@@H](C(F)(F)F)C[C@@H](C1CCN(C(=O)C3CC3)CC1)N2	-2.95%
COc1ncccc1C(=O)N1CC(c2nc(-c3ccco3)no2)C1	15.9%
Cc1cc(NC(=O)N(CC2CCOC2)C2CC2)no1 (configuration not stated)	-11.9%
CN(C)C(=O)NCc1nnc2n1CCN(Cc1ccsc1)C2	3.34%
CC(=O)NC1(C(=O)N2CCC(Nc3cccnn3)CC2)CCCCC1	3.94%
CC(C)CS(=O)(=O)CC(=O)NC(C)c1nnc2n1CCC2 (configuration not stated)	-2.61%
O=C(O)Cn1nc(C2CC2)c2c(-c3cccs3)ccnc21	25.1%
O=C1O[C@@H]2CN(C3CCOCC3)C[C@@H]2N1CCc1cccc(Cl)c1	-1.7%
Cc1cnn(CC2CN(Cc3ccc(C(N)=O)cc3)CCO2)c1 (configuration not stated)	-7.11%
CN1C(Cn2cccn2)C[C@@H]2CN(Cc3cnn(C)c3)CC[C@@H]21 (some centres not stated)	-11.7%
O=C1CSC(c2ccc(O)c(Cl)c2)c2c(n(C3CCOCC3)[nH]c2=O)N1 (configuration not stated)	6.82%
Cc1cnn(CCNc2ncnc3c2CCN(CC2CCOC2)CC3)c1 (configuration not stated)	-2.24%
O=C(c1ccccc1)N1CCO[C@@H]2CNC[C@@H]21	-5.73%
CC(O)C1CCN(C(=O)CCOc2ccccc2F)CC1 (configuration not stated)	-14.1%
CCOCC1CCCN(C(=O)NCc2ccc(-c3ccn[nH]3)cc2)C1 (configuration not stated)	12.5%
O=C1CCC2(CCNCC2)CN1CCCNc1cccnc1	-0.123%
CC1(CO)COC(Cc2ccc(Cl)cc2)=N1 (configuration not stated)	21%
CO[C@@H]1CC[C@@H](NC(=O)CCc2ccc(Cl)cc2)[C@H]1O	-7.81%

Compound	cytotoxicity at 70.5 h
OCCN1CCN(Cc2coc(-c3ccc(Cl)cc3)n2)CC1	-11.8%
O=C(c1cccc(-c2ccc(F)cc2)c1)N1CCC2(CC1)[C@H](O)C[C@@H]2O	-9.07%
Cn1cnnc1SC1CCc2ccccc2NC1=O (configuration not stated)	-20.5%
CCSc1ccc(C(=O)N2CC[C@](C)(O)[C@H](C)C2)s1	-10.1%
c1ccc(CN2CCC(Nc3ncnc4c3CCNCC4)C2)cc1 (configuration not stated)	-4.37%
Cc1nc2ccccc2c(=O)n1CCC(=O)N1CCNC(=O)C1	-2.46%
CCCNC(=O)c1ccc(S(=O)(=O)NCC2(O)CCCNC2)cc1 (configuration not stated)	-5.48%
CC(C)OC(=O)N1C[C@H]2CC[C@@H]1CN(C(=O)c1ccccn1)C2	10.5%
Cc1ccc(C)c2c(O)cc(CNCC(N)=O)nc12	-0.585%
Cc1nn(CCn2ccnc2-c2cc3n(n2)CCCNC3)c(C)c1Cl	13.8%
Cc1cc(CN(C)C(=O)NC2CCN(c3ncccn3)CC2)no1	-0.403%
Cc1ccoc1C(=O)N1C[C@@H](OCC2CCOCC2)[C@H]2OCCC[C@H]21	8.35%
Cc1nn(C)c(C)c1CNC1CCOc2ccccc21 (configuration not stated)	-8.58%
COc1ccc(C(=O)Nc2cnn(CCN3CCOCC3)c2)c(O)c1	0.79%
O=C(N[C@H]1COC[C@@H]1N1CCCC1)c1csc(Cc2ccccc2)n1	-14.1%
O=C(CCNC(=O)c1ccoc1)Nc1cc(F)ccc1F	-5.4%
CC(=O)N1CCC2(CC1)CN(C(=O)c1cccc3[nH]ccc13)C2	-11.6%
O=C(CCCNc1ncccn1)N1CCCC(n2cncn2)C1 (configuration not stated)	-7.32%
O=C(Nc1ccccc1)C1CN(Cc2nccs2)CC12CCOCC2 (configuration not stated)	10%
CCN1CCN(C)C2(CCN(Cc3cccc(C)n3)CC2)C1=O	-9.88%
O=C(c1cc(-c2ccn(CC3CC3)n2)n2ccccc12)N1CCOCC1	-2.8%
NC(=O)CN1CC2(CCC1=O)CCN(Cc1ccc(Cl)c(F)c1)CC2	2.58%
Cc1nc(N2CCOCC2)nc(C)c1NS(=O)(=O)c1ccccc1	-4.03%

Compound	cytotoxicity at 70.5 h
COC(=O)c1cc(C(=O)N2CCCCCC2)n(-c2ccccc2)n1	11.6%
O=C(Cc1cnn(-c2ccccc2)n1)NC1CCOCC1	-0.727%
Cn1ccnc1CC1CCCN(C(=O)Cc2ccccc2)C1 (configuration not stated)	-1.68%
Nc1nc(CNc2nccc(CCC(F)(F)F)n2)cs1	-7.96%
Fc1ccc(CNCC2OCCc3cn(CC4CC4)nc32)cc1 (configuration not stated)	5.14%
Cn1cc(C2COC3(CCN(C(=O)c4ccn(C)n4)CC3)C2)cn1 (configuration not stated)	-14.5%
Cc1cc(N(C)C)nc(C2(C)CCNCC2)n1	46.3%
Cc1nn(C)c(N(C)C)c1CNCC(O)c1ccccc1 (configuration not stated)	0.0769%
Cc1cnn(CC2CN(Cc3nnc(C4CC4)o3)CCO2)c1 (configuration not stated)	-5.68%
Cc1cnn(CC2CCCCN2CC(=O)Nc2nncs2)c1 (configuration not stated)	-1.03%
CC(C)c1nnsc1CNC(=O)C1CCN(C(=O)C2CC2)CC1	2.6%
CCS(=O)(=O)N(C)CCCNCc1c(C)nn(C)c1N(C)C	-2.24%
CCOCc1nc(-c2ccc(F)cc2Cl)n(C2CCN(C)CC2)n1	-17.9%
COC(=O)COn1c(OC)nc2ccccc2c1=O	-11.7%
Cc1nnsc1C(=O)N1CCC2(CC1)c1nc[nH]c1CCN2CC(C)C	-2.79%
CN(Cc1cccc(C(F)(F)F)c1)Cc1nc(-c2cnccn2)no1	-8.53%
Cc1cnn(CCNCc2nc(COc3ccc(F)cc3)no2)c1	6.22%
COc1cc(OC)cc(C2(O)CCN(Cc3ncc(C)o3)CC2)c1	18.5%
CC(=O)CC(C)(C)NC(=O)CCN(C)Cc1ccc(Cl)s1	-9.29%
O=c1cc(-c2ccc(F)cc2)nc2n1CCCCC2	-14%
OC[C@H]1CC[C@]2(CC1)CN(Cc1ccccc1F)Cc1ccccc1O2	-3.44%
O=C(Cn1c(=O)oc2ccccc21)NCC1(O)CCc2ccccc21 (configuration not stated)	-6.07%
O=C(NCc1cccnc1-n1cccn1)C1CC(=O)N(CC2CC2)C1 (configuration not stated)	-13.2%

Compound	cytotoxicity at 70.5 h
O=C1CC[C@H]2CN(c3ncc(F)cn3)CC[C@H]2N1CCc1ccccn1	-5.32%
CN1CC2(CCCN(Cc3nnc(-c4ccco4)o3)CC2)OC1=O (configuration not stated)	-0.887%
CN1CCN(CC2CN(CC3CC3)Cc3nccn3C2)CC1 (configuration not stated)	-6.02%
CC(NC(=O)c1cccs1)C(=O)Nc1cccnc1N1CCCCC1 (configuration not stated)	2.11%
CCO[C@H]1CC[C@H]2[C@@H]1OCCN2C(=O)COc1ccccc1	27.1%
NC(=O)C1CCN(C(=O)c2cc(Br)ccc2-n2cnnn2)CC1	27.7%
CCN(CC)S(=O)(=O)N1CCCC(c2ncc3c(n2)CCN(C)C3)C1 (configuration not stated)	23.8%
CN(Cc1cnn(C)c1)S(=O)(=O)N1CCCC1c1ccco1 (configuration not stated)	-0.954%
CC(=O)N1CCC2(CC1)C(=O)N(C)c1c(F)cccc12	3.91%
Cc1cccc(CN2CCc3nnc(CN4CCCC4=O)n3CC2)n1	-16.9%
Cn1ncc2c1CCCC2NCc1cc(Br)cs1 (configuration not stated)	-0.587%
c1cnc(-c2noc(C3CN(Cc4ccsc4)C3)n2)cn1	-8.37%
O=C(c1c[nH]cn1)N1CCC(F)(F)C2(CCN(c3cccc(F)c3)C2)C1 (configuration not stated)	-7.39%
C[C@@H]1CN(c2nc3c(cc2C(N)=O)CCC3)C[C@@]1(O)C1CCC1	-11.3%
CCn1cc(S(=O)(=O)NC2CCCN(CC3CCCCC3)C2)cn1 (configuration not stated)	15.9%
c1ccc(CN2CCCC(CNc3ncnc4c3CCNCC4)C2)cc1 (configuration not stated)	-6.09%
COc1ncccc1C(=O)N1CC[C@H]2C[C@H](c3noc(C)n3)O[C@@H]2C1	51.3%
Cc1ccccc1CN(C)CC(O)COCc1ccccc1Cl (configuration not stated)	21.6%
O=C(CCO)N1CC2(CCN(c3ccccc3)C2)C1	-1.72%
O=C(O)c1nnn(-c2ccc(C(F)(F)F)cc2)c1-c1ccncc1	-26.2%
